Source: US20030180355A1, “Combination therapy for hypertension” (priority 2001, published 2003)
Marks after values point to notes of the source that are not given here.

Experiments:
[1] = test system: patients with a sitting diastolic blood pressure (SDBP) of 95-109 mm Hg; test: Clinical study, factorial design, randomized double-blind placebo-controlled, 8 weeks; type: in vivo, human; details: for Therapeutic response rate, study participants with SDBP < 90 mm Hg / Change in SDBP / Change in SSBP: 8 weeks; for Change in SDBP / Change in SSBP: vs baseline, response surface analysis
Experimental: A multi-center, randomized, double-blind, placebo-controlled, parallel groups, factorial design trial was conducted. After a 14-day (±3 days) screening/washout period during which patients were washed from ongoing antihypertensive therapy, eligible patients with a sitting diastolic blood pressure (SDBP) of 95-109 mm Hg, entered the 28 day (±3 days) single-blind placebo run-in period during which they received placebo once-daily. Patients who were not responsive to this treatment and whose SDBP was 95-109 mm Hg, were randomized into an eight-week double-blind treatment phase. Baseline measurements were taken on Study Day 0 with post-therapy assessments during the double blind period scheduled on Study Days 14, 28, 42, and 56. Laboratory tests were conducted prior to the beginning of the screening period and on study Day 0 as well as at the end of the study.
The number of patients screened was greater than 800; 798 entered the 4-week single-blind placebo period, and 663 eligible patients were randomized into the 8-week double-blind treatment. The number in parenthesis represents the number of patients in each group available for efficacy evaluation.
The patients were randomized into one of the above noted 12 treatment groups. Tablets of lercanidipine (5 and 10 mg) and enalapril (2.5 mg) were encapsulated in the appropriate doses, in order to assure double-blind conditions. All tablets were of commercial origin except for the 5 mg lercanidipine, which were prepared in accordance with Table 3.
Patients were instructed to take one capsule of the study medication once daily 15 minutes before breakfast, between 6 and 10 am. All medications were to be withheld on mornings of clinic visits until after blood pressure evaluations at 22-26 hours following the previous day's dose of study medication.
1. Trough (Minimum) (24±2 hours post-dose) sitting diastolic blood pressure (SDBP)
2. Trough (24±2 hours post-dose) sitting systolic blood pressure (SSBP)
4. Percent of patients with SDBP<90 mm Hg
The primary efficacy variable was the change from baseline to mean trough SDBP after 8 weeks of double-blind treatment. The analysis was performed in an “intent-to-treat” fashion, including all randomized patients who had received at least one dose of double-blind treatment, and had at least one post-baseline SDBP measurement 18-48 hours post-dose. In case of premature withdrawal from the study the last observation carried forward (LOCF) algorithm was applied (“end point analysis”).
The overall treatment comparison was performed using an analysis of covariance (ANCOVA) with treatment and centers as main effects and baseline value as covariate.
An additional ANOVA was performed using the factorial model in order to test for the interaction of lercanidipine dose and enalapril dose at each time-point.
The number of patients who discontinued the study because of an adverse event is reported in parenthesis.

isolated rat aorta = details: in vitro; even after the drug has been removed for 6 hours; cited from earlier work
[2] = enalapril 5 mg once daily, 55 patients randomized
[3] = enalapril 10 mg once daily, 55 patients randomized
[4] = lercanidipine 5 mg once daily, 54 patients randomized
[5] = lercanidipine 10 mg once daily, 57 patients randomized
[6] = lercanidipine 20 mg once daily, 54 patients randomized

For `CCOC(=O)[C@H](CCc1ccccc1)N[C@@H](C)C(=O)N1CCC[C@H]1C(=O)O` [enalapril, (S)-1-[N-1-(ethoxycarbonyl)-3-phenylpropyl]-L-alanyl-L-proline], the “Therapeutic response rate, study participants with SDBP < 90 mm Hg” value (“Therapeutic response rate” for short) ([1]; enalapril 5 mg once daily) was 28%, the “Change in SDBP” value ([1]; enalapril 5 mg once daily) was −7.7 and the “Change in SSBP” value ([1]; enalapril 5 mg once daily, confidence interval in parentheses) was −9.6 (8.1-11.2). The “number of patients who discontinued the study because of an adverse event” value (“number … of an adverse event” below) [1, 2] was 1, the “number of patients with any adverse events related to study drug” value (from here on “number of patients … to study drug”) [1, 2] was 9 and the “Therapeutic response rate” value ([1]; enalapril 10 mg once daily) was 43%. For the same molecule, the “Change in SDBP” value ([1]; enalapril 10 mg once daily) was −8.8, the “Change in SSBP” value ([1]; enalapril 10 mg once daily, confidence interval in parentheses) was −11.1 (9.1-13.2) and the “number … of an adverse event” value [1, 3] was 1. For the same molecule, the “number of patients … to study drug” value [1, 3] was 12.

For `COC(=O)C1=C(C)NC(C)=C(C(=O)OC(C)(C)CN(C)CCC(c2ccccc2)c2ccccc2)C1c1cccc([N+](=O)[O-])c1` (stereo not shown) [lercanidipine, methyl 1,1,N-trimethyl-N-(3,3-diphenylpropyl)-2-aminoethyl 1,4-dihydro-2,6-dimethyl-4-(3-nitrophenyl)pyridine-3,5-dicarboxylate], the “Therapeutic response rate” value ([1]; lercanidipine 5 mg once daily) was 32%, the “Change in SSBP” value ([1]; lercanidipine 5 mg once daily, confidence interval in parentheses) was −9.5 (7.8-11.1) and the “number … of an adverse event” value [1, 4] was 3. The “number of patients … to study drug” value [1, 4] was 8, the “Therapeutic response rate” value ([1]; lercanidipine 10 mg once daily) was 40% and the “Change in SDBP” value ([1]; lercanidipine 10 mg once daily) was −8.2. For the same molecule, the “Change in SSBP” value ([1]; lercanidipine 10 mg once daily, confidence interval in parentheses) was −10.8 (9.1-12.4), the “number … of an adverse event” value [1, 5] was 1 and the “number of patients … to study drug” value [1, 5] was 10. The “Therapeutic response rate” value ([1]; lercanidipine 20 mg once daily) was 59%*, the “Change in SDBP” value ([1]; lercanidipine 20 mg once daily) was −9.9* and the “Change in SSBP” value ([1]; lercanidipine 20 mg once daily, in mm Hg) was −13.4* (11.1-15.6). The “number … of an adverse event” value [1, 6] was 3, the “number of patients … to study drug” value [1, 6] was 10 and the “isolated rat aorta response to high K+” value (isolated rat aorta) was “attenuated”.
